For one compound, Km results are on record in publication PMC6193987, “Metagenomics reveals functional synergy and novel polysaccharide utilization loci in the Castor canadensis fecal microbiome” (The ISME Journal, 2018).

For one test, the system named is 12_H03-13. In words: fluorogenic glycosidase kinetics. As to conditions: GH43 domain site. It is filed as biochemical, uncultured bacterium (Castor canadensis fecal metagenome). From the text: fluorogenic glycosidase kinetics on 12_H03-13
For the next test, the system named is 12_J03-18. In words: fluorogenic glycosidase kinetics. The class given is biochemical, uncultured bacterium (Castor canadensis fecal metagenome). From the text:
fluorogenic glycosidase kinetics on 12_J03-18

The term Km denotes the substrate concentration at which the rate is half of its maximum. On to `Cc1cc(=O)oc2cc(O[C@@H]3OC[C@@H](O)[C@H](O)[C@H]3O)c(Cl)cc12` [6-chloro-4-methylumbelliferyl β-D-xyloside], for which the results for the Michaelis constant (Km) in the test with 12_H03-13, in the test on 12_H03-13 (GH8 catalytic acid residue mutated) and in the test on 12_J03-18 were 190 ± 30 µM, 140 ± 10 µM and 480 ± 60 µM, respectively.
